Experiment [1] concerns A-549 cells. The experiment can be described thus: cell cycle distribution analysis, PI flow cytometry. In kind it is cell-based. The settings on record: 5 μM, 24 h. As for the experimental part: The antineoplastic agent 33 (5 μM) was used as a reference. […] Compound 24 caused a disruption of the cell cycle of A-549 cancer cells, indicated by a shift from the predominant G0/G1 phase (Figure 8A) to the apoptotic sub-G1 phase as well as the G2/M phase (Figure 8B). A similar G2/M arrest could be observed for reference compound 33 (Figure 8C); however, MCT1 inhibitor 24 led to a larger fraction of cells into the sub-G1 phase, indicating induced apoptosis. This experiment discovered that compound 24 inhibits cell proliferation, causing cell cycle arrest and, eventually, apoptosis. To confirm our findings, we conducted an apoptosis assay using compound 24.
A standard PI staining procedure was used as described earlier[44]−[46] to determine the effect of compounds 24 and 33 on cell cycle progression, followed by flow cytometry analysis (FACS Aria SORP and FACS Aria Fusion, BD Biosciences, Franklin Lakes, NJ). In brief, A-549 cells were seeded onto a 6-well plate (250,000 cells/well) and incubated for 24 h at 37 °C under a 5% CO2-humidified atmosphere before being observed under a microscope. The cells were treated with compound 24 (5 μM) or 33 (5 μM) and further incubated for 24 h at 37 °C under a 5% CO2-humidified atmosphere. Then, the cells were harvested and washed twice with cold PBS (Genetix Biotech Asia, New Delhi, India) before being fixed overnight in ice-cold 70% (v/v) ethanol at 4 °C. The cells were again washed two times with PBS and subsequently resuspended with RNase (100 μg/mL; HiMedia, Mumbai, India) and their DNA was stained with PI (40 μg/mL; Sigma-Aldrich, Mumbai, India) before being incubated in the dark for 10 min. The DNA content was measured at the Indian Institute of Technology Bombay (IITB, Mumbai, India) by applying flow cytometry.
(In general: Flow cytometry measures light scatter and fluorescence of single cells or particles in a stream.)

In experiment [2] the test system is A2780 cells. Kind of experiment: MTT-based cell toxicity of 33 on sensitive A2780 cells. The settings on record: Homo sapiens, 33 alone, 72 h, read-out: A2780 cell toxicity 33 + 0.0 μM cmpd. GI50 ± SEM. As for the experimental part: (§1) This sensitization is indicated by a shift of the concentration-effect curve of compound 33 from the right (=high concentrations of 33 needed to induce A2780/ADR cell death) to the left (=lower concentrations of 33 needed to induce A2780/ADR cell death). The concentration-effect curve of compound 33 in combination with 5 μM of either compound 24 or 30 resembles the concentration-effect curve of the sensitive cell line A2780. […] Thus, their potentiating effect with respect to the antiproliferative agent 33 against ABCB1-expressing A2780/ADR cells is due to the inhibition of ABCB1. Therefore, compounds 24 and 30 were dually effective against MCT1- and ABCB1-expressing cells (Table 5).
(§2) An MDR-reversal assay[2],[55]−[59] was used to investigate the ability to reverse ABCB1-mediated MDR in A2780/ADR cells toward the cytotoxic ABCB1 substrate 33. […] A dilution series of 33 at concentrations between 0.1 μM and 100 μM was generated, and 20 μL of each concentration was transferred onto the plates (final concentration: 0.01–10 μM). The plates were incubated for 72 h at 37 °C and a 5% CO2-humidified atmosphere, before subsequent processing with the regular MTT assay as described above. The observed effects of compounds 24 and 30 were compared to the effect of 33 alone on A2780/ADR cells as well as its sensitive counterpart A2780 (∼10,000 cells/well).

Experiment [3] concerns MCT1-expressing A-549 cells. The experiment can be described thus: MTT-based efficacy assay, 33 in combination with test compound, A-549. The format is cell-based. The following applies: Homo sapiens, A549; 33 alone, 72 h; read-out: A-549 cell toxicity 33 + 0 nM test cmpd. GI50 ± SEM. As for the experimental part: MCT1 inhibition anticipates challenging cancer cell energy supply and, thus, increases the efficacy of anticancer agents.
For this purpose, 10 μL of compounds 24 or 30 (50 nM, 100 nM, or 500 nM) was transferred onto a colorless flat-bottom 96-well microplate and complemented with 180 μL of a cell suspension containing either approximately 5,000 A-549 cells. A dilution series of compound 33 at concentrations between 50 nM and 50 μM was generated, and 10 μL of each concentration was transferred onto the plate. The observed effects of compounds 24 and 30 were compared to the effect of compound 33 alone on A-549. The plates were incubated for 72 h at 37 °C and a 5% CO2-humidified atmosphere, before subsequent processing with the regular MTT assay as described above.[43]
Background: Tetrazolium dyes change colour on reduction, which living cells bring about.

The subject of experiment [4] is ABCB1-expressing A2780/ADR cells. The experiment can be described thus: MTT-based efficacy (MDR-reversal) assay, 33 in combination with test compound, A2780/ADR. The settings on record: A2780 ADR; 33 alone, 72 h; read-out: A2780/ADR cell toxicity 33 + 0.0 μM cmpd. GI50 ± SEM. In kind it is cell-based. The protocol: as §1, §2

Consider `COc1cccc2c1C(=O)c1c(O)c3c(c(O)c1C2=O)C[C@@](O)(C(=O)CO)C[C@@H]3O[C@H]1C[C@H](N)[C@H](O)[C@H](C)O1` [Compound 33, doxorubicin, reference compound], for which, in experiment [1], the “cells in G0/G1 phase” value is 41.1%, the “cells in G2/M phase” value stood at 26.2%, the “cells in S phase” value is listed as 27.4% and the “cells in Sub-G1 phase” value turned out to be 4.00%. Besides, the GI50 in experiment [2] was determined as 19.4 ± 1.7 nM. Also, in experiment [3], the GI50 came out at 47.6 ± 0.7 nM. In addition, the GI50 in experiment [4] is 802 ± 81 nM.

The values above are taken from PMC9841531, “Indole Derivatives as New Structural Class of Potent and Antiproliferative Inhibitors of Monocarboxylate Transporter 1 (MCT1; SLC16A1)” (Journal of Medicinal Chemistry, 2022).
